Measured values taken from patent US20230286973A1, “PROTEIN SECRETION INHIBITORS” (KEZAR LIFE SCIENCES, priority 2020, published 2023).

Columns and labels:
[1] = test system: multiple myeloma cell line U266B1; experiment: U266 Cell Viability Assay; assay type: cell-based, human; conditions: Homo sapiens, U-266, 48 h, U266B1 cells, Celltiter-Glo
How it was run: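 Cells grown in RPMI 1640 with 10% FBS, 2 mM glutamine and penicillin/streptomycin were exposed to compound dilutions in DMSO/media for 48 hours at 37° C., 5% CO2. Viability was read by CellTiter-Glo luminescence. Undefined stereocentres mean data for stereoisomer mixtures.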

[2] = Liver Microsome Stability Assay (rat); conditions: rat liver microsomes, with NADPH, 1.0 uM compound
Protocol: (§1) Stability of a compound was assessed in the presence of liver microsomes from various sources—mouse, rat, monkey and human liver microsomes. 1.0 uM compound, 0.4% DMSO in 0.1 M Potassium Phosphate with 1.0 mg/mL liver microsomes, were incubated at 37° C. with or without 1 mM NADPH. The samples were quenched at 0, and 30 minutes.

[3] = test system: multiple myeloma cell line NCI-H929; experiment: H929 Cell Viability Assay; assay type: cell-based, human; conditions: Homo sapiens, NCI-H929, 48 h, NCI-H929 cells, Celltiter-Glo
How it was run: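 NCI-H929 cells, resuspended in RPMI 1640 with 10% FBS and 2 mM glutamine, were treated with compound dilutions in DMSO/media and incubated 48 hours at 37° C, 5% CO2. Viability was read by CellTiter-Glo luminescence. Compounds drawn without stereochemistry were tested as stereoisomer mixtures.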

[4] = test system: TNFα-FL/Gaussia Luciferase; experiment: Dox Induced TNFα-FL-Gluc Assay; assay type: cell-based; conditions: for IC50: 24 hr Dox induction, 293FRT/TO cells, read-out: 24 hr Dox Inducible TNFaFLGluc 293FRT/TO: Mean IC50; for 24 hr Dox Inducible TNFaFLGluc 293FRT/TO: TNF/PD1: ratio of TNFaFLGluc IC50 to PD1ssGluc IC50
How it was run: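 Flp-In 293 T-REx cells stably expressing full-length TNFα (aa 1-233) fused at its C-terminus to Gaussia luciferase under tetracycline-regulated control were plated the day before assay. Compound dilutions in DMSO/media containing doxycycline were added and incubated at 37 °C, 5% CO2. Unspecified stereochemistry denotes stereoisomer mixtures.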

[5] = Liver Microsome Stability Assay (human); conditions: human liver microsomes, with NADPH, 1.0 uM compound
Protocol: as §1

[6] = Liver Microsome Stability Assay (monkey); conditions: monkey liver microsomes, with NADPH, 1.0 uM compound
Protocol: as §1

[7] = test system: IL-2-FL/Gaussia Luciferase; experiment: Dox Induced IL2-FL-Gluc Assay; assay type: cell-based; conditions: for IC50: 24 hr Dox induction, 293FRT/TO cells, read-out: 24 hr Dox Inducible IL2FLGluc 293FRT/TO: Mean IC50; for 24 hr Dox Inducible IL2FLGluc 293FRT/TO: IL2/PD1: ratio of IL2FLGluc IC50 to PD1ssGluc IC50
How it was run: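 Flp-In 293 T-REx cells stably carrying doxycycline-inducible full-length IL-2 (aa 1-153) fused at its C-terminus to Gaussia luciferase, selected with hygromycin and blasticidin. Cells were plated the day before, then treated with compounds in DMSO/media containing doxycycline at 37° C, 5% CO2.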

[8] = Liver Microsome Stability Assay (mouse); conditions: mouse liver microsomes, with NADPH, 1.0 uM compound
Protocol: as §1

[9] = test system: HER3-ss+4aa/Gaussia Luciferase; experiment: Dox-Induced Her3-ss-Gluc Assay; assay type: cell-based; conditions: 24 hr Dox induction; 293FRT/TO cells; read-out: 24 hr Dox Inducible Her3(ss + 4)Gluc 293FRT/TO: Mean IC50
How it was run: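 Stable Flp-In 293 T-REx line expressing Gaussia luciferase fused to the HER3 signal sequence plus 4 amino acids under tetracycline-regulated (T-REx) control. Cells plated the day before, then treated with compound dilutions in DMSO/media containing doxycycline and incubated at 37° C., 5% CO2.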

[10] = test system: PD1-ss+10aa/Gaussia Luciferase; experiment: Dox-Induced PD1-ss-Gluc Assay; assay type: cell-based; conditions: 24 hr Dox induction; 293FRT/TO cells; read-out: 24 hr Dox Inducible PD1ssGluc 293FRT/TO: Mean IC50
How it was run: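 The cell line was made by transfecting Flp-In 293 T-REx cells with a PD1 signal sequence+10aa–Gaussia luciferase fusion under T-REx control and selecting with hygromycin and blasticidin. Cells were seeded, and next day compound plus doxycycline was added at 37 °C, 5% CO2.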

| Compound | EC50 [1] | Liver Microsome Stability (Multiple Species): Rat - % Remaining after 30 min w/NADPH [2] | EC50 [3] | IC50 [4] | 24 hr Dox Inducible TNFaFLGluc 293FRT/TO: TNF/PD1 [4] | Liver Microsome Stability (Multiple Species): Human - % Remaining after 30 min w/NADPH [5] | Liver Microsome Stability (Multiple Species): Monkey - % Remaining after 30 min w/NADPH [6] | IC50 [7] | 24 hr Dox Inducible IL2FLGluc 293FRT/TO: IL2/PD1 [7] | Liver Microsome Stability (Multiple Species): Mouse - % Remaining after 30 min w/NADPH [8] | IC50 [9] | IC50 [10] |
| --- | --- | --- | --- | --- | --- | --- | --- | --- | --- | --- | --- | --- |
| CC(=O)N1CCCCC1c1ccc(N2CCC[C@@H]2c2csc(NC(=O)c3cccn3Cc3ccncc3)n2)cc1 (stereo partly drawn) [Compound A58, N-(4-((2R)-1-(4-(1-acetylpiperidin-2-yl)phenyl)pyrrolidin-2-yl)thiazol-2-yl)-1-(pyridin-4-ylmethyl)-1H-pyrrole-2-carboxamide] | 9.99 µM | 4.13% | 3.34 µM | 1.88 µM | 17.4 | 0.4% | 0.29% | 0.296 µM | 2.7 | 0.24% | 0.249 µM | 0.108 µM |
| O=C(Nc1nc([C@H]2CCCN2c2ccc(C3CCCCN3)cc2)cs1)c1cccn1Cc1ccncc1 (stereo partly drawn) [Compound A59, N-(4-((2R)-1-(4-(piperidin-2-yl)phenyl)pyrrolidin-2-yl)thiazol-2-yl)-1-(pyridin-4-ylmethyl)-1H-pyrrole-2-carboxamide] | 6.49 µM | 21.3% | 16 µM | 22.5 µM | 10.3 | 0.62% | 2.29% | 6.96 µM | 3.2 | 49.8% | 5.06 µM | 2.18 µM |
| O=C(Nc1nc([C@H]2CCCN2c2ccccc2)cs1)c1cccn1Cc1cc(F)nc(F)c1 [Compound A60, (R)-1-((2,6-difluoropyridin-4-yl)methyl)-N-(4-(1-phenylpyrrolidin-2-yl)thiazol-2-yl)-1H-pyrrole-2-carboxamide] | > 25 µM | 19.7% | 4.72 µM | 0.861 µM | 13.5 | 13.7% | 23.8% | 0.186 µM | 2.9 | 48.3% | 0.131 µM | 0.0638 µM |
| O=C(Nc1nc([C@H]2CCCN2c2ccc(C3CCCNC3)cc2)cs1)c1cccn1Cc1ccncc1 (stereo partly drawn) [Compound A61, N-(4-((2R)-1-(4-(piperidin-3-yl)phenyl)pyrrolidin-2-yl)thiazol-2-yl)-1-(pyridin-4-ylmethyl)-1H-pyrrole-2-carboxamide] | 5.52 µM | 22.8% | 6.29 µM | 11.6 µM | 12.7 | 2.45% | 5.11% | 3.22 µM | 3.5 | 54.5% | 1.57 µM | 0.917 µM |
| CC(=O)N1CCC(Oc2ccc(N3CCC[C@@H]3c3csc(NC(=O)c4cccn4Cc4ccnc(F)c4)n3)cc2)CC1 [Compound A62, (R)-N-(4-(1-(4-((1-acetylpiperidin-4-yl)oxy)phenyl)pyrrolidin-2-yl)thiazol-2-yl)-1-((2-fluoropyridin-4-yl)methyl)-1H-pyrrole-2-carboxamide] | > 25 µM | 45.1% | 0.373 µM | 0.251 µM | 16.7 | 34.3% | 21.4% | 0.0298 µM | 2 | 52.7% | 0.0357 µM | 0.015 µM |
| CC(=O)N1CCCC(c2ccc(N3CCC[C@@H]3c3csc(NC(=O)c4cccn4Cc4ccncc4)n3)cc2)C1 (stereo partly drawn) [Compound A63, N-(4-((2R)-1-(4-(1-acetylpiperidin-3-yl)phenyl)pyrrolidin-2-yl)thiazol-2-yl)-1-(pyridin-4-ylmethyl)-1H-pyrrole-2-carboxamide] | > 25 µM | 6.07% | 1.78 µM | 1.06 µM | 13.2 | 2.22% | 1.18% | 0.149 µM | 1.9 | 3.64% | 0.13 µM | 0.08 µM |
| CC(=O)NCc1ccc(N2CCC[C@@H]2c2csc(NC(=O)c3cccn3Cc3ccnc(F)c3)n2)cc1 [Compound A64, (R)-N-(4-(1-(4-(acetamidomethyl)phenyl)pyrrolidin-2-yl)thiazol-2-yl)-1-((2-fluoropyridin-4-yl)methyl)-1H-pyrrole-2-carboxamide] | > 25 µM | 6.39% | 0.203 µM | 0.164 µM | 15.4 | 1.39% | 0.78% | 0.027 µM | 2.5 | 13.7% | 0.0194 µM | 0.0106 µM |
| NC(=O)c1ccc(N2CCC[C@@H]2c2csc(NC(=O)c3cccn3Cc3ccnc(F)c3)n2)cc1 [Compound A65, (R)-N-(4-(1-(4-carbamoylphenyl)pyrrolidin-2-yl)thiazol-2-yl)-1-((2-fluoropyridin-4-yl)methyl)-1H-pyrrole-2-carboxamide] | > 25 µM | 1.1% | 0.0812 µM | 0.0655 µM | 31 | 22.1% | 0.35% | 0.00799 µM | 3.8 | 7.68% | 0.00649 µM | 0.00211 µM |
